Each structure is given as a SMILES string.

The assay has as its target T1, Human HPK1, catalytic domain (Homo sapiens, UniProt Q92918).
T1 sequence (Q92918 1-346): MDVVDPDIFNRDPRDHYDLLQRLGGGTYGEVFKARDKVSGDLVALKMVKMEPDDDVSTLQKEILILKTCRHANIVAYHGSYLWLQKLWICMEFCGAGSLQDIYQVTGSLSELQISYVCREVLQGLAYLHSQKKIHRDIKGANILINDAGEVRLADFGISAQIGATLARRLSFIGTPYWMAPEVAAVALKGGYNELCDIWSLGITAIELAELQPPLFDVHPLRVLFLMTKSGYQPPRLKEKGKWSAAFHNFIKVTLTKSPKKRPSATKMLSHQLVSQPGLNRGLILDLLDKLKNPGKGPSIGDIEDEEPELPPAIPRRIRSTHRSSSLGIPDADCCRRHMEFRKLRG
Put plainly: HPK1-SLP76 TR-FRET Assay. The assay is classed as biochemical. The note with it: 75 pM HPK1, ATP 10 uM, SLP76 10 nM, 30 min pre-incubation, 60 min reaction. (In general: TR-FRET usually uses a lanthanide donor and a delayed reading to cut background.)
In the case of `COc1cc2c(cc1Nc1ncc3c(N)cc(-c4cncc(N)c4C)cc3n1)CN(C)CC2` [Compound 2-39, 7-(5-amino-4-methylpyridin-3-yl)-N~2~- (6-methoxy-2-methyl-1,2,3,4-tetrahydroisoquinolin-7-yl)quinazoline-2,5-diamine], the IC50 (commonly the concentration that inhibits the measured activity by half) stood at 0.942 nM. This lies in the sub-nanomolar range. The result for `COc1cc2c(cc1Nc1ncc3c(N)cc(-c4cnc5c(c4C)NCCO5)cc3n1)CN(C)CC2` [Compound 2-40, N~2~-(6-methoxy-2-methyl-1,2,3,4-tetrahydroisoquinolin-7-yl)-7-(8-methyl-2,3-dihydro-1H-pyrido[2,3-b][1,4]oxazin-7-yl)quinazoline-2,5-diamine] reads 0.633 nM; that for `Cc1c(-c2cc3nc(Nc4ccc5c(c4)C(C)(C)OC5=O)ncc3c(N)c2F)cnc2c1NCCO2` [Compound 2-41, 5-{[5-amino-6-fluoro-7-(8-methyl-2,3-dihydro-1H-pyrido[2,3-b][1,4]oxazin-7-yl)quinazolin-2-yl]amino}-3,3-dimethyl-2-benzofuran-1(3H)-one], 0.0761 nM.

`Cc1c(-c2cc3nc(Nc4ccc5c(c4)CN(CC(C)(C)O)C5=O)ncc3c(N)c2F)cnc2c1NCCO2` [Compound 2-42, 5-{[5-amino-6-fluoro-7-(8-methyl-2,3-dihydro-1H-pyrido[2,3-b][1,4]oxazin-7-yl)quinazolin-2-yl]amino}-2-(2-hydroxy-2-methylpropyl)-2,3-dihydro-1H-isoindol-1-one] showed an IC50 of 0.153 nM. `Cc1c(-c2cc3nc(Nc4ccc5c(c4)CCS5(=O)=O)ncc3c(N)c2F)cnc2c1NCCO2` [Compound 2-43, 5-{[5-amino-6-fluoro-7-(8-methyl-2,3-dihydro-1H-pyrido[2,3-b][1,4]oxazin-7-yl)quinazolin-2-yl]amino}-2,3-dihydro-1H-1-benzothiophene-1,1-dione] registered an IC50 of 0.0849 nM. This IC50 is about 1.8-fold lower than that of the compound before. The result for `Cc1ccncc1-c1cc2nc(Nc3ccc(CS(C)(=O)=O)cc3)ncc2c(N)c1F` [Compound 2-44, 6-fluoro-7-(4-methylpyridin-3-yl)-N~2~- {4-[(methylsulfonyl)methyl]phenyl}quinazoline-2,5-diamine] reads 0.194 nM; that for `COc1cc2c(cc1Nc1ncc3c(N)c(F)c(-c4cnc5c(c4C)NCCO5)cc3n1)CN(C)CC21CC1` [Compound 2-45, 6-fluoro-N~2~-(6′-methoxy-2′-methyl-2′,3′-dihydro-1′H-spiro[cyclopropane-1,4′-isoquinolin]-7′-yl)-7-(8-methyl-2,3-dihydro-1H-pyrido[2,3-b][1,4]oxazin-7-yl)quinazoline-2,5-diamine], 0.163 nM. For `COc1cc2c(cc1Nc1ncc3c(N)c(F)c(-c4cnc5ncsc5c4)cc3n1)CN(C)CC2` [Compound 2-47, 6-fluoro-N~2~-(6-methoxy-2-methyl-1,2,3,4-tetrahydroisoquinolin-7-yl)-7-([1,3]thiazolo[4,5-b]pyridin-6-yl)quinazoline-2,5-diamine], the IC50 came to 24.6 nM. Against the preceding compound, the IC50 is about 150-fold higher.

In turn, `COc1cc2c(cc1Nc1ncc3c(N)c(F)c(-c4cc5oc(=O)[nH]c5cc4C)cc3n1)CN(C)CC2` [Compound 2-49, 6-(5-amino-6-fluoro-2-((6-methoxy-2-methyl-1,2,3,4-tetrahydroisoquinolin-7-yl)amino)quinazolin-7-yl)-5-methylbenzo[d]oxazol-2(3H)-one] had a 50% inhibitory concentration (IC50) of 10.5 nM. Compared with the last compound, the IC50 is about 2.3-fold lower. To `COc1cc(CS(C)(=O)=O)ccc1Nc1ncc2c(N)c(F)c(-c3cnc4c(c3C)NCCO4)cc2n1` [Compound 2-50, 6-fluoro-N2-(2-methoxy-4-((methylsulfonyl)methyl)phenyl)-7-(8-methyl-2,3-dihydro-1H-pyrido[2,3-b][1,4]oxazin-7-yl)quinazoline-2,5-diamine] belongs 0.0594 nM. To `COc1cc2c(cc1Nc1ncc3c(N)c(F)c(-c4cc(C#N)ccc4C)cc3n1)CN(C)CC2` [Compound 2-51, 3-(5-amino-6-fluoro-2-((6-methoxy-2-methyl-1,2,3,4-tetrahydroisoquinolin-7-yl)amino)quinazolin-7-yl)-4-methylbenzonitrile] belongs 474 nM. `Cc1ccc(C#N)cc1-c1cc2nc(Nc3ccc(S(C)(=O)=O)cc3)ncc2c(N)c1F` [Compound 2-52, 3-(5-amino-6-fluoro-2-{[4-(methylsulfonyl)phenyl]amino}quinazolin-7-yl)-4-methylbenzonitrile] gave an IC50 of 424 nM.

Turning to `Cc1ccc(C#N)cc1-c1cc2nc(Nc3ccc(CS(C)(=O)=O)cc3)ncc2c(N)c1F` [Compound 2-53, 3-[5-amino-6-fluoro-2-({4-[(methylsulfonyl)methyl]phenyl}amino)quinazolin-7-yl]-4-methylbenzonitrile], the IC50 was 131 nM. For the compound `COC1CC(NC(=O)c2ccc(Nc3ncc4c(N)c(F)c(-c5cnc6c(c5C)NCCO6)cc4n3)cc2)C1` (stereo not drawn) [Compound 2-58, 4-{[5-amino-6-fluoro-7-(8-methyl-2,3-dihydro-1H-pyrido[2,3-b][1,4]oxazin-7-yl)quinazolin-2-yl]amino}-N-(3-methoxycyclobutyl) benzamide], inhibition was half-maximal at 0.0791 nM (IC50). Compared with the last compound, the IC50 is about 1700-fold lower. For `Cc1c(-c2cc3nc(Nc4cc5c(cc4F)CCN(C)C5)ncc3c(N)c2F)cnc2c1NCCO2` [Compound 2-59, 6-fluoro-N~2~-(6-fluoro-2-methyl-1,2,3,4-tetrahydroisoquinolin-7-yl)-7-(8-methyl-2,3-dihydro-1H-pyrido[2,3-b][1,4]oxazin-7-yl)quinazoline-2,5-diamine], it took 0.0508 nM to reach half-maximal inhibition (IC50). The result for `COc1cc2c(cc1Nc1ncc3c(N)c(F)c(-c4ccc(-c5ncco5)cc4C)cc3n1)CN(C)CC2` [Compound 2-60, 6-fluoro-N~2~-(6-methoxy-2-methyl-1,2,3,4-tetrahydroisoquinolin-7-yl)-7-[2-methyl-4-(1,3-oxazol-2-yl)phenyl]quinazoline-2,5-diamine] reads 469 nM; that for `COc1cc2c(cc1Nc1ncc3c(N)c(F)c(-c4cnc(-c5ncco5)cc4C)cc3n1)CN(C)CC2` [Compound 2-61, 6-fluoro-N~2~-(6-methoxy-2-methyl-1,2,3,4-tetrahydroisoquinolin-7-yl)-7-[4-methyl-6-(1,3-oxazol-2-yl)pyridin-3-yl]quinazoline-2,5-diamine], 1.27 nM. To `Cc1c(-c2cc3nc(Nc4cc5c(cc4Cl)CCN(C)C5)ncc3c(N)c2F)cnc2c1NCCO2` [Compound 2-64, N~2~-(6-chloro-2-methyl-1,2,3,4-tetrahydroisoquinolin-7-yl)-6-fluoro-7-(8-methyl-2,3-dihydro-1H-pyrido[2,3-b][1,4]oxazin-7-yl)quinazoline-2,5-diamine] belongs 0.782 nM; to `COc1cc2c(cc1Nc1ncc3c(N)c(F)c(-c4ccccc4-c4ccnn4C)cc3n1)CN(C)CC2` [Compound 2-65, 6-fluoro-N~2~-(6-methoxy-2-methyl-1,2,3,4-tetrahydroisoquinolin-7-yl)-7-[2-(1-methyl-1H-pyrazol-5-yl)phenyl]quinazoline-2,5-diamine], 16.6 nM. For the compound `COc1nc(C)ccc1Nc1ncc2c(N)c(F)c(-c3cnc4c(c3C)NCCO4)cc2n1` [Compound 2-66, 6-fluoro-N~2~-(2-methoxy-6-methylpyridin-3-yl)-7-(8-methyl-2,3-dihydro-1H-pyrido[2,3-b][1,4]oxazin-7-yl)quinazoline-2,5-diamine], half-maximal inhibition (IC50) was put at 0.722 nM.

In turn, `Cc1c(-c2cc3nc(Nc4ccc(N5CCOC5=O)cc4)ncc3c(N)c2F)cnc2c1NCCO2` [Compound 2-67, 3-(4-{[5-amino-6-fluoro-7-(8-methyl-2,3-dihydro-1H-pyrido[2,3-b][1,4]oxazin-7-yl)quinazolin-2-yl]amino}phenyl)-1,3-oxazolidin-2-one] displayed an IC50 of 0.0508 nM.

For the origin of these results see patent publication US20230399341A1, “7-PHENYL SUBSTITUTED 2-AMINOQUINAZOLINE INHIBITORS OF HPK1” (MERCK SHARP & DOHME LLC, priority 2020, published 2023).
